Source: ChEMBL document CHEMBL2417417, “Chemical variation from the neoantimycin depsipeptide assembly line” (Bioorg Med Chem Lett, 2013)
Active and inactive are the calls of the source. No cut-off for these calls is given here.

The compounds below were run on HT-29 (assay: Antiproliferative activity against human HT-29 cells at 100 uM up to 15 hrs by non-radioactive cell proliferation assay).
Assay type: functional, cell-based
In the case of CC[C@H](C)[C@@H]1OC(=O)C(C)(C)[C@@H](O)[C@@H](Cc2ccccc2)OC(=O)[C@H](C(C)C)OC(=O)[C@@H](NC(=O)c2cccc(N)c2O)[C@H](C)OC1=O, the Activity is reported as “inactive”.
CC(C)[C@@H]1OC(=O)[C@@H](NC(=O)c2cccc(NC=O)c2O)[C@H](C)OC(=O)[C@H](C(C)C)OC(=O)C(C)(C)[C@@H](O)[C@@H](Cc2ccccc2)OC1=O was tested, and the Activity was “inactive”.
CC[C@H](C)[C@@H]1OC(=O)C(C)(C)[C@@H](O)[C@@H](Cc2ccccc2)OC(=O)[C@H](C)OC(=O)[C@@H](NC(=O)c2cccc(N)c2O)[C@H](C)OC1=O was tested, and the Activity was “inactive”.
In the case of CC[C@H](C)[C@@H]1OC(=O)C(C)(C)[C@@H](O)[C@@H](Cc2ccccc2)OC(=O)[C@H](C)OC(=O)[C@@H](NC(=O)c2cccc(NC=O)c2O)[C@H](C)OC1=O, the Activity is reported as “inactive”.
For CC[C@H](C)[C@@H]1OC(=O)C(C)(C)[C@@H](O)[C@@H](Cc2ccccc2)OC(=O)[C@H](C(C)C)OC(=O)[C@@H](NC(=O)c2cccc(NC=O)c2O)[C@H](C)OC1=O, the Activity was “inactive”.
With CC(C)[C@@H]1OC(=O)[C@@H](NC(=O)c2cccc(N)c2O)[C@H](C)OC(=O)[C@H](C(C)C)OC(=O)C(C)(C)[C@@H](O)[C@@H](Cc2ccccc2)OC1=O the Activity was “inactive”.
